The values that follow come from patent US10815276B2, “Cell penetrating peptides and methods of making and using thereof” (Entrada Therapeutics, Inc., priority 2014, dated 2020).

Like-named read-outs stand apart in the source and are kept apart here. Starred links: 1 amine or outer side, 2 acyl side, 3 side chain; linkers in the order of their positions; H or OH if unused. Positions of bridges follow the written chain, without caps; N, C: chain ends. Non-standard residues stand in square brackets, D forms with d. Residues, ends and D or L forms follow the SMILES beside them. *: point of attachment. Lys(5-FITC)NH2 = NC(=O)[C@H](CCCCNC(=S)Nc1ccc2c(c1)C(=O)OC21c2ccc(O)cc2Oc2cc(O)ccc21)N*; Trimesoyl = O=C(c1cc(C(=O)[*:2])cc(C(=O)[*:3])c1)[*:1]; Phe(4-Cl) = N[C@@H](Cc1ccc(Cl)cc1)C(=O)O; Phe(4-F) = N[C@@H](Cc1ccc(F)cc1)C(=O)O; 2Nal = N[C@@H](Cc1ccc2ccccc2c1)C(=O)O; d2Nal = N[C@H](Cc1ccc2ccccc2c1)C(=O)O; Pip = O=C(O)[C@@H]1CCCCN1; Dap = NC[C@H](N)C(=O)O; βAla = NCCC(=O)O; Sar = CNCC(=O)O

The test system of test [1] is SUV1 (vesicles that mimic the neutral outer membrane of mammalian cells). As to the kind of experiment: Fluorescence polarization membrane binding, SUV1. The settings on record: pH 7.4; read-out: Membrane Binding KD (mM) SUV1 pH 7.4. The text has this: (§1) Also discussed herein are the CPP sequences in Table 16. All uptake/delivery efficiencies are in Table 17 are relative to that of cFΦR4 (290-1F, 100%). SUV1 are small unilamellar vesicles that mimic the neutral outer membrane of mammalian cells [45% phosphatidylcholine (PC), 20% phosphatidylethanolamine (PE), 20% sphingomyelin (SM), and 15% cholesterol (CHO)]. SUV2 are small unilamellar vesicles that mimic the negatively charged endosomal membrane of mammalian cells [50% PC, 20% PE, 10% phosphatidylinositol (PI), and 20% bis(monoacylglycerol)phosphate].
(§2) Measurements were carried out fluorescence polarization using FITC-labeled cyclic peptides against increasing concentrations of vesicles. Experiments were performed at pH 7.4 and 5.5 (pH inside late endosomes).

Test [2] relates to SUV2 (vesicles that mimic the negatively charged endosomal membrane of mammalian cells). As to the kind of experiment: Fluorescence polarization membrane binding, SUV2.
From the text: as §1, §2
In general terms: In fluorescence polarisation assays a small probe gives low polarisation when free and higher when bound to something large.

Test [3] has as its system cell type (e.g., HeLa cells). As to the kind of experiment: Cellular uptake efficiency of cyclic CPPs. It counts as cell-based. As to conditions: relative to cFΦR4 (290-1F, 100%). On the procedure:
In particular embodiments, uptake efficiency is determined by comparing (i) the amount of a cyclic cell-penetrating peptide of the invention internalized by a cell type (e.g., HeLa cells) to (ii) the amount of c(FΦRRRRQ) (290-1F) internalized by the same cell type. To measure cellular uptake efficiency, the cell type may be incubated in the presence of a cell-penetrating peptide of the invention for a specified period of time (e.g., 30 minutes, 1 hour, 2 hours, etc.) after which the amount of the cell-penetrating peptide internalized by the cell is quantified. Separately, the same concentration of c(FΦRRRRQ) (290-1F) is incubated in the presence of the cell type over the same period of time, and the amount of the second peptide internalized by the cell is quantified. Quantification can be achieved by fluorescently labeling the cell-penetrating peptide (e.g., with a FTIC dye) and measuring the fluorescence intensity using techniques well-known in the art.
as §1

The target in another test is T1, Pin1 (Homo sapiens, UniProt Q13526, S16A/Y23A).
T1 construct: The full-length human S16A/Y23A mutant Pin1 was expressed and purified from E. coli; made in house
T1 sequence (Q13526 whole entry S16A/Y23A): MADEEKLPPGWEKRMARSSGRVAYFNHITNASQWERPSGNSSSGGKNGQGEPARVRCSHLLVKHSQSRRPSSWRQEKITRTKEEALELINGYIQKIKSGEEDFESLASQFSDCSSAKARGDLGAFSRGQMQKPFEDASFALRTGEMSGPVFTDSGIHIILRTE
As to the kind of experiment: Pin1 binding by FA (FITC-labeled peptides). The settings on record: FITC-labeled peptide, FA; read-out: KD.

The mark [4] stands for this setting: pH 5.5, read-out: Membrane Binding KD (mM) SUV2 pH 5.5.
Where [5] appears, read: pH 7.4, read-out: Membrane Binding KD (mM) SUV2 pH 7.4.

In general, Kd refers to the free concentration of one partner at which half of the binding sites on the other are occupied at equilibrium, for simple one-to-one binding. On to `N=C(N)NCCC[C@@H]1NC(=O)[C@H](CCC(=O)N[C@@H](CCCCNC(=S)Nc2ccc3c(c2)C(=O)OC32c3ccc(O)cc3Oc3cc(O)ccc32)C(N)=O)NC(=O)[C@H](CCCNC(=N)N)NC(=O)[C@H](CCCNC(=N)N)NC(=O)[C@H](Cc2ccccc2)NC(=O)[C@H](Cc2ccc3ccccc3c2)NC(=O)[C@H](CCCNC(=N)N)NC1=O` [Peptide 290-2F, c(RRΦFRRQ)] (cyclo(RR[2Nal]FRRE(Lys(5-FITC)NH2))), for which the Kd was 1.95 mM in test [1], 0.025 mM in test [2] (setting [4]) and 0.69 mM in test [2] (setting [5]). For the same molecule, the “Uptake Efficiency (%)” value in test [3] is given as 47%.

With `N=C(N)NCCC[C@@H]1NC(=O)[C@@H](CCCNC(=N)N)NC(=O)[C@H](CCCNC(=N)N)NC(=O)[C@@H](CCCNC(=N)N)NC(=O)[C@@H](Cc2ccc3ccccc3c2)NC(=O)[C@H](Cc2ccccc2)NC(=O)[C@H](CCC(=O)N[C@@H](CCCCNC(=S)Nc2ccc3c(c2)C(=O)OC32c3ccc(O)cc3Oc3cc(O)ccc32)C(N)=O)NC1=O` [Peptide 290-13F, c(FϕrRrRQ)] (cyclo(F[d2Nal][dR]R[dR]RE(Lys(5-FITC)NH2))), the Kd in test [1] was 0.68 mM; in test [2] (setting [4]), 0.04 mM; in test [2] (setting [5]), 0.28 mM. For the same molecule, the “Uptake Efficiency (%)” value in test [3] amounted to 200%.

Regarding `N=C(N)NCCC[C@@H]1NC(=O)[C@H](CCC(=O)N[C@@H](CCCCNC(=S)Nc2ccc3c(c2)C(=O)OC32c3ccc(O)cc3Oc3cc(O)ccc32)C(N)=O)NC(=O)[C@H](CCCNC(=N)N)NC(=O)[C@H](Cc2ccc3ccccc3c2)NC(=O)[C@H](CCCNC(=N)N)NC(=O)[C@H](Cc2ccccc2)NC(=O)[C@H](CCCNC(=N)N)NC(=O)[C@H](Cc2ccccc2)NC1=O` [Peptide 290-8F] (cyclo(RFRFR[2Nal]RE(Lys(5-FITC)NH2))), the Kd was determined as 0.4 mM in test [1], 0.082 mM in test [2] (setting [4]) and 0.39 mM in test [2] (setting [5]). For the same molecule, in test [3], the “Uptake Efficiency (%)” value came out at 98%.

For the molecule `N=C(N)NCCC[C@@H]1NC(=O)[C@H](CCCNC(=N)N)NC(=O)[C@H](CCCNC(=N)N)NC(=O)[C@H](Cc2ccccc2)NC(=O)[C@H](CCC(=O)N[C@@H](CCCCNC(=S)Nc2ccc3c(c2)C(=O)OC32c3ccc(O)cc3Oc3cc(O)ccc32)C(N)=O)NC(=O)[C@H](Cc2ccc3ccccc3c2)NC(=O)[C@H](CCCNC(=N)N)NC1=O` [Peptide 290-4F, c(FRRRRΦQ)] (cyclo(FRRRR[2Nal]E(Lys(5-FITC)NH2))), the results for the Kd in test [1], in test [2] (setting [4]) and in test [2] (setting [5]) were 7.24 mM, 0.11 mM and 0.54 mM, respectively. Besides, in test [3], the “Uptake Efficiency (%)” value came to 59%.

Turning to `C[C@@H]1NC(=O)[C@H](CCCNC(=N)N)NC(=O)[C@H](Cc2ccc3ccccc3c2)NC(=O)[C@@H]2CCCCN2C(=O)[C@@H]([C@H](C)O)NC(=O)[C@H](Cc2ccc(Cl)cc2)NC(=O)[C@@H](Cc2ccccc2)NC(=O)c2cc3cc(c2)C(=O)NC[C@H](NC(=O)[C@@H](Cc2ccccc2)NC1=O)C(=O)N[C@@H](Cc1ccccc1)C(=O)N[C@@H](Cc1ccc2ccccc2c1)C(=O)N[C@@H](CCCNC(=N)N)C(=O)N[C@@H](CCCNC(=N)N)C(=O)N[C@@H](CCCNC(=N)N)C(=O)N[C@@H](CCCNC(=N)N)C(=O)N[C@H](C(=O)N[C@@H](CCCCN)C(N)=O)CNC3=O` [Peptide 30, bicyclo[Tm-(D-Phe-4-ClPhe-D-Thr-Pip-Nal-Arg-Ala-D-Phe)-Dap-(Phe-Nal-Arg-Arg-Arg-Arg-Dap)]-Lys] ([dF][Phe(4-Cl)][dT][Pip][2Nal]RA[dF][Dap]F[2Nal]RRRR[Dap]K-NH2; linker N-9-16 via Trimesoyl; C-terminus assumed), at Pin1, the dissociation constant (Kd) turned out to be 0.78 ± 0.05 µM.

In the case of `C[C@H]1NC(=O)[C@H](CCCNC(=N)N)NC(=O)[C@H](CCCNC(=N)N)NC(=O)[C@H](Cc2ccc3ccccc3c2)NC(=O)[C@@H]2CCCCN2C(=O)[C@@H](CC(=O)O)NC(=O)CN(C)C(=O)[C@@H]2CCCN2C(=O)c2cc3cc(c2)C(=O)NC[C@H](NC1=O)C(=O)N[C@@H](Cc1ccccc1)C(=O)N[C@@H](Cc1ccc2ccccc2c1)C(=O)N[C@@H](CCCNC(=N)N)C(=O)N[C@@H](CCCNC(=N)N)C(=O)N[C@@H](CCCNC(=N)N)C(=O)N[C@@H](CCCNC(=N)N)C(=O)N[C@H](C(=O)N[C@@H](CCCCN)C(N)=O)CNC3=O` [Peptide 19, bicyclo[Tm-(Pro-Sar-D-Asp-Pip-Nal-Arg-Arg-D-Ala)-Dap-(Phe-Nal-Arg-Arg-Arg-Arg-Dap)]-Lys] (P[Sar][dD][Pip][2Nal]RR[dA][Dap]F[2Nal]RRRR[Dap]K-NH2; linker N-9-16 via Trimesoyl; C-terminus assumed), the Kd on Pin1 came to 0.72 ± 0.09 µM.

For `C[C@H]1NC(=O)[C@H](CC(=O)O)NC(=O)[C@H](CCCNC(=N)N)NC(=O)[C@H](Cc2ccc3ccccc3c2)NC(=O)[C@@H]2CCCCN2C(=O)[C@@H](CC(=O)O)NC(=O)CN(C)C(=O)[C@@H]2CCCN2C(=O)c2cc3cc(c2)C(=O)NC[C@H](NC1=O)C(=O)N[C@@H](Cc1ccccc1)C(=O)N[C@@H](Cc1ccc2ccccc2c1)C(=O)N[C@@H](CCCNC(=N)N)C(=O)N[C@@H](CCCNC(=N)N)C(=O)N[C@@H](CCCNC(=N)N)C(=O)N[C@@H](CCCNC(=N)N)C(=O)N[C@H](C(=O)N[C@@H](CCCCN)C(N)=O)CNC3=O` [Peptide 20, bicyclo[Tm-(Pro-Sar-D-Asp-Pip-Nal-Arg-Asp-D-Ala)-Dap-(Phe-Nal-Arg-Arg-Arg-Arg-Dap)]-Lys] (P[Sar][dD][Pip][2Nal]RD[dA][Dap]F[2Nal]RRRR[Dap]K-NH2; linker N-9-16 via Trimesoyl; C-terminus assumed), on Pin1, the dissociation constant Kd amounted to 3.19 ± 0.5 µM.

On to `C[C@H](O)[C@H]1NC(=O)[C@H](Cc2ccc(F)cc2)NC(=O)[C@@H](Cc2ccccc2)NC(=O)c2cc3cc(c2)C(=O)NC[C@H](NC(=O)[C@H](CCCNC(=N)N)NC(=O)[C@H](Cc2ccc4ccccc4c2)NC(=O)[C@@H]2CCCCN2C1=O)C(=O)N[C@@H](Cc1ccccc1)C(=O)N[C@@H](Cc1ccc2ccccc2c1)C(=O)N[C@@H](CCCNC(=N)N)C(=O)N[C@@H](CCCNC(=N)N)C(=O)N[C@@H](CCCNC(=N)N)C(=O)N[C@@H](CCCNC(=N)N)C(=O)N[C@H](C(=O)N[C@@H](CCCCN)C(N)=O)CNC3=O` [Peptide 12, bicyclo[Tm-(D-Phe-Fpa-D-Thr-Pip-Nal-Arg)-Dap-(Phe-Nal-Arg-Arg-Arg-Arg-Dap)]-Lys] ([dF][Phe(4-F)][dT][Pip][2Nal]R[Dap]F[2Nal]RRRR[Dap]K-NH2; linker N-7-14 via Trimesoyl; C-terminus assumed), for which, at Pin1, the dissociation constant Kd stood at 2.36 ± 0.48 µM.

For the molecule `C[C@@H]1NC(=O)[C@H](CCCNC(=N)N)NC(=O)[C@H](Cc2ccc3ccccc3c2)NC(=O)[C@@H]2CCCCN2C(=O)[C@@H](CC(=O)O)NC(=O)CN(C)C(=O)[C@@H]2CCCN2C(=O)c2cc3cc(c2)C(=O)NC[C@@H](C(=O)N[C@@H](CCCCN)C(N)=O)NC(=O)[C@H](CCCNC(=N)N)NC(=O)[C@H](CCCNC(=N)N)NC(=O)[C@H](CCCNC(=N)N)NC(=O)[C@H](CCCNC(=N)N)NC(=O)[C@H](Cc2ccc4ccccc4c2)NC(=O)[C@H](Cc2ccccc2)NC(=O)[C@H](CNC3=O)NC(=O)CCNC1=O` [Peptide 13, bicyclo[Tm-(Pro-Sar-D-Asp-Pip-Nal-Arg-Ala-β-Ala)-Dap-(Phe-Nal-Arg-Arg-Arg-Arg-Dap)]-Lys] (P[Sar][dD][Pip][2Nal]RA[βAla][Dap]F[2Nal]RRRR[Dap]K-NH2; linker N-9-16 via Trimesoyl; C-terminus assumed), at Pin1, the Kd came out at 2.08 ± 0.31 µM.
